Laboratory results reported in the CheMixHub viscosity set.
± gives the uncertainty stated by the source.

Experiment: xn = mol fraction of the nth substance listed

C=CCN(CC=C)C(=O)C(Cl)Cl + CCO
viscosity [mPa·s], 101 kPa
Conditions	x1 = 0.004764	x1 = 0.01126	x1 = 0.01785	x1 = 0.02455	x1 = 0.03127	x1 = 0.03725	x1 = 0.04407
293.15 K	1.208 ± 0.029	1.238 ± 0.03	1.258 ± 0.03	1.284 ± 0.031	1.314 ± 0.032	1.334 ± 0.032	1.372 ± 0.033
298.15 K	1.108 ± 0.027	1.134 ± 0.028	1.162 ± 0.028	1.178 ± 0.029	1.201 ± 0.029	1.215 ± 0.029	1.245 ± 0.03
303.15 K	1.008 ± 0.025	1.025 ± 0.025	1.043 ± 0.026	1.062 ± 0.026	1.08 ± 0.026	1.1 ± 0.027	1.116 ± 0.027
308.15 K	0.9132 ± 0.023	0.9322 ± 0.023	0.9453 ± 0.024	0.9641 ± 0.024	0.9854 ± 0.024	0.9997 ± 0.025	1.02 ± 0.025
313.15 K	0.832 ± 0.021	0.8475 ± 0.021	0.8596 ± 0.022	0.8743 ± 0.022	0.8941 ± 0.022	0.9139 ± 0.023	0.9264 ± 0.023

CC(C)C[C@H](NC(=O)CN)C(=O)O + O
viscosity [mPa·s], 100 kPa
Conditions	x1 = 0.000362	x1 = 0.000727	x1 = 0.00109	x1 = 0.00145	x1 = 0.00179	x1 = 0.002245	x1 = 0.002699
293.15 K	1.015 ± 0.12	1.029 ± 0.12	1.042 ± 0.12	1.054 ± 0.12	1.067 ± 0.12	1.083 ± 0.12	1.1 ± 0.12
298.15 K	0.9019 ± 0.12	0.9133 ± 0.12	0.9246 ± 0.12	0.9358 ± 0.12	0.9464 ± 0.12	0.9607 ± 0.12	0.9749 ± 0.12
303.15 K	0.8072 ± 0.12	0.817 ± 0.12	0.8268 ± 0.12	0.8363 ± 0.12	0.8455 ± 0.12	0.8577 ± 0.12	0.8698 ± 0.12
308.15 K	0.7277 ± 0.12	0.7362 ± 0.12	0.7447 ± 0.12	0.753 ± 0.12	0.761 ± 0.12	0.7717 ± 0.12	0.7823 ± 0.12
313.15 K	0.6605 ± 0.12	0.668 ± 0.12	0.6755 ± 0.12	0.6828 ± 0.12	0.6898 ± 0.12	0.6992 ± 0.12	0.7085 ± 0.12

CC(=O)c1ccccc1 + CCOC(C)=O
viscosity [mPa·s], 100 kPa
Conditions	x1 = 0.0775	x1 = 0.1574	x1 = 0.2396	x1 = 0.3244	x1 = 0.4119	x1 = 0.5021	x1 = 0.5953	x1 = 0.6915	x1 = 0.7909	x1 = 0.8937
303.15 K	0.4772 ± 0.0034	0.5756 ± 0.004	0.6734 ± 0.0045	0.7711 ± 0.005	0.8688 ± 0.0056	0.9666 ± 0.0061	1.064 ± 0.0067	1.162 ± 0.0072	1.26 ± 0.0077	1.358 ± 0.0083
313.15 K	0.424 ± 0.0031	0.5047 ± 0.0036	0.5856 ± 0.004	0.6665 ± 0.0045	0.7474 ± 0.0049	0.8284 ± 0.0054	0.9093 ± 0.0058	0.9902 ± 0.0063	1.071 ± 0.0067	1.152 ± 0.0072
323.15 K	0.374 ± 0.0028	0.4427 ± 0.0032	0.5114 ± 0.0036	0.5801 ± 0.004	0.6488 ± 0.0044	0.7175 ± 0.0048	0.7862 ± 0.0051	0.8549 ± 0.0055	0.9236 ± 0.0059	0.9923 ± 0.0063

CN(C)P(=O)(N(C)C)N(C)C + CO
303.15 K, 101.3 kPa
Conditions	viscosity [mPa·s]
x1 = 0.0993	0.829 ± 0.013
x1 = 0.2036	1.145 ± 0.016
x1 = 0.2984	1.401 ± 0.02
x1 = 0.3941	1.63 ± 0.026
x1 = 0.4882	1.846 ± 0.031
x1 = 0.5898	2.07 ± 0.039
x1 = 0.6978	2.308 ± 0.047
x1 = 0.778	2.476 ± 0.055
x1 = 0.8966	2.722 ± 0.066

CC(=O)c1ccccc1 + OCc1ccccc1
303.15 K, 101 kPa
Conditions	viscosity [mPa·s]
x1 = 0.0742	4.331 ± 0.038
x1 = 0.2566	3.618 ± 0.032
x1 = 0.3107	3.42 ± 0.03
x1 = 0.4505	2.937 ± 0.026
x1 = 0.528	2.685 ± 0.024
x1 = 0.5727	2.544 ± 0.022
x1 = 0.7494	2.036 ± 0.018
x1 = 0.8383	1.82 ± 0.016
x1 = 0.9234	1.638 ± 0.015

C[N+](C)(C)C.[Cl-] + Oc1ccccc1
viscosity [mPa·s], 101 kPa
Conditions	303.15 K	313.15 K	323.15 K
x1 = 0.2	23.35 ± 0.75	16.88 ± 0.54	11.9 ± 0.39
x1 = 0.25	36.91 ± 1.2	23.75 ± 0.78	16.31 ± 0.53

CCC(O)CC + O
298.15 K, 101 kPa
Conditions	viscosity [mPa·s]
x2 = 0.0181	4.598 ± 0.043
x2 = 0.0463	4.339 ± 0.042
x2 = 0.0845	4.074 ± 0.041
x2 = 0.1302	3.873 ± 0.042
x2 = 0.1754	3.748 ± 0.043
x2 = 0.1948	3.712 ± 0.044
x2 = 0.2262	3.67 ± 0.045
x2 = 0.2533	3.65 ± 0.046
x2 = 0.2782	3.641 ± 0.047
x2 = 0.3215	3.648 ± 0.05

CC(C)OC(C)C + CCC(C)O
viscosity [mPa·s], 100 kPa
Conditions	x1 = 0.0813	x1 = 0.1604	x1 = 0.2406	x1 = 0.341	x1 = 0.447	x1 = 0.5582	x1 = 0.6505	x1 = 0.7374	x1 = 0.8465	x1 = 0.9346
293.15 K	3 ± 0.15	2.51 ± 0.13	2.1 ± 0.11	1.653 ± 0.083	1.304 ± 0.066	0.976 ± 0.049	0.772 ± 0.039	0.623 ± 0.032	0.473 ± 0.024	0.384 ± 0.02
298.15 K	2.51 ± 0.13	2.09 ± 0.11	1.75 ± 0.09	1.395 ± 0.07	1.122 ± 0.057	0.846 ± 0.043	0.678 ± 0.034	0.56 ± 0.03	0.44 ± 0.02	0.365 ± 0.019
303.15 K	2.11 ± 0.11	1.742 ± 0.088	1.453 ± 0.073	1.16 ± 0.06	0.95 ± 0.05	0.75 ± 0.04	0.619 ± 0.031	0.522 ± 0.027	0.414 ± 0.021	0.344 ± 0.018
308.15 K	1.76 ± 0.09	1.48 ± 0.07	1.241 ± 0.063	1.004 ± 0.051	0.834 ± 0.042	0.67 ± 0.03	0.558 ± 0.028	0.473 ± 0.024	0.388 ± 0.02	0.325 ± 0.017
313.15 K	1.49 ± 0.08	1.25 ± 0.06	1.06 ± 0.05	0.87 ± 0.04	0.73 ± 0.04	0.596 ± 0.03	0.51 ± 0.03	0.44 ± 0.02	0.361 ± 0.019	0.307 ± 0.016
318.15 K	1.28 ± 0.06	1.074 ± 0.054	0.92 ± 0.05	0.769 ± 0.039	0.65 ± 0.03	0.535 ± 0.027	0.46 ± 0.02	0.4 ± 0.02	0.333 ± 0.017	0.29 ± 0.02
323.15 K	1.1 ± 0.06	0.931 ± 0.047	0.801 ± 0.041	0.67 ± 0.03	0.575 ± 0.029	0.48 ± 0.03	0.416 ± 0.021	0.367 ± 0.019	0.31 ± 0.02	0.27 ± 0.02
